Results reported in article PMC10820135, “Pharmacokinetic, Tissue Distribution, Metabolite, and Toxicity Evaluation of the Matrine Derivative, (6aS, 10S, 11aR, 11bR, 11cS)-10-Methylaminododecahydro-3a, 7a-Diaza-benzo (de) Anthracene-8-thione” (Molecules, 2024).

Tests used:
[1] = Metabolite profiling of MASM in rats by UHPLC-QQQ-MS/MS; type: in vivo, Sprague-Dawley rats; details: rat, MASM i.p. 80 mg/kg, i.g. 60 mg/kg
Protocol: The identification of the in vivo metabolites of MASM was conducted using UHPLC-QQQ-MS/MS combined with standard references and deuterium-labeled MASM. The findings are presented in Table 2, while the proposed primary metabolic pathway of MASM in rats is depicted in Figure 4. To provide a comprehensive understanding of the metabolite identification process, three representative metabolites of MASM are presented, with their identification relying on primary and secondary mass spectrometry data, standard references, and deuterium-labeled MASM. The remaining metabolites are detailed in Supplementary File S4. For instance, the identification of the metabolite, M1, as a demethylation product of MASM was accomplished through the utilization of MS, MS/MS data, and the standard reference. […] Moreover, the identification of M1 as the demethylation metabolite of MASM was accomplished using the standard reference synthesized in our laboratory. […] Secondly, the metabolite, M2, of MASM was identified as the dehydrogenation product of MASM through the utilization of MS and MS/MS data. […] Consequently, M2 was identified as a dehydrogenation metabolite of M1. Thirdly, through the utilization of MS, MS/MS data, and deuterium-labeled MASM, the metabolite, M8, of MASM was determined to be a dehydrogenation product of MASM. […] The major MS/MS fragment ions of M8 were found at m/z 111.92, 178.77, 150.16, and 135.85, which aligned with the characteristic cleavage pattern of matrine. Additionally, our lab synthesized deuterium-labeled MASM to further support our proposed structure. […] Consequently, M8 was identified as a dehydrogenation metabolite of MASM. The EIC, MS/MS spectrum of M8 and deuterium-labeled MASM are all depicted in Figure 5C.
UHPLC analysis was performed using a Thermo Accela AS system, employing an ACQUITY UPLC®BEH C18 (Waters Corporation, Wexfords, Ireland) (1.7 µm, 2.1 × 100 mm) column and a binary solvent system consisting of water containing 0.1% formic acid as mobile phase A and acetonitrile as mobile phase B. For pharmacokinetic evaluation, the gradient elution was set as follows: 97% A from 0 to 2 min, 97–70% A from 2 to 3 min, 70–20% A from 3 to 3.5 min, 20% A from 3.5 to 3.6 min, 20–97% A from 3.6 to 3.7 min, and 97% A from 3.7 to 5 min. For the metabolic test, the gradient elution in full scan mode was set as follows: 97% A from 0 to 2 min, 97–70% A from 2 to 4 min, 70–20% A from 4 to 6 min, 20% A from 6 to 7 min, 20–97% A from 7 to 8 min, and 97% A from 8 to 10 min. The flow rate was 0.2 mL/min, with a temperature of 40 °C maintained and an injection volume of 5 μL. The QQQ-MS/MS analysis was conducted using a Thermo TSQ QUANTUM ACCESS MAX system equipped with an electrospray ionization (ESI) source. The spray voltages were set at 4.0 kV and 2.5 kV for positive and negative ion modes, respectively; capillary and vaporizer temperatures were 320 °C and 350 °C, respectively; sheath and aux gas pressures were 35 and 10 psi, respectively.
Seventy Sprague-Dawley rats were fasted overnight before dosing, with free access to water. Subsequently, the rats were randomly and equally divided into 7 groups: the control groups received 3 different routes of administration: intravenous, intraperitoneal, and intragastric (NS, saline 1 mL/100 g); MASM intraperitoneal group (A, i.p. 80 mg/kg), MASM intragastrical group (B, i.g. 60 mg/kg), MASM intravenous group (C, i.v. 15 mg/kg), and DMASM intragastrical group (D, i.g. 60 mg/kg). It is important to note that the recommended clinical dose of matrine injection is 0.15 g, which is equivalent to a dosage of 15 mg/kg in rats. MASM was administered via tail vein injection at a dosage of 1 mL/100 g for intravenous dosing, while for intraperitoneal dosing, MASM was injected at the lower-right side of the abdomen of rats. […]

mice = details: cited from earlier work
[2] = cited from earlier work

NC1CC(=S)N2CC3CCCN4CCCC(C34)C2C1 (stereo not shown) [M7]
Method of Administration after which the metabolite of MASM was found [1]: i.p. i.g.

O=C1CCC[C@@H]2[C@H]3CCC[N+]4([O-])CCC[C@@H](CN12)[C@@H]34 (stereo partly shown) [M5, oxymatrine]
Method of Administration after which the metabolite of MASM was found [1]: i.p. i.g.

O=C1CCC[C@@H]2[C@H]3CCCN4CCC[C@@H](CN12)[C@@H]34 [matrine]
LD50 of matrine (mice): 83.21 mg/kg | time of peak plasma concentration of matrine ([2]; after oral administration, ref Zhang et al. 11): 2.1 h | bioavailability of matrine ([2]; reported value, ref Yang et al. 12): 18.5%

CNC1CC(S)N2CC3CCCN4CCCC(C34)C2C1 (stereo not shown) [M6]
Method of Administration after which the metabolite of MASM was found [1]: i.p. i.g.

CN[C@@H]1CC(=S)N2CC3CCCN4C=CCC(C34)C2C1 (stereo partly shown) [M8]
Method of Administration after which the metabolite of MASM was found [1]: i.g.

O=CNC1CC(=S)N2CC3CCCN4CCCC(C34)C2C1 (stereo not shown) [M10]
Method of Administration after which the metabolite of MASM was found [1]: i.g.

OCNC1CC(=S)N2CC3CCCN4CCCC(C34)C2C1 (stereo not shown) [M9]
Method of Administration after which the metabolite of MASM was found [1]: i.g.

O=C1C=CC[C@@H]2[C@H]3CCC[N+]4([O-])CCC[C@@H](CN12)[C@@H]34 (stereo partly shown) [M4, oxysophocarpine]
Method of Administration after which the metabolite of MASM was found [1]: i.p. i.g.
